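Cells were grown in 96-well plates and exposed to each compound for 48 hours at five concentrations; endpoints were interpolated linearly between bracketing concentrations, or set to the highest concentration if not reached. GI50 marks 50% less growth.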 Activity calls are given as the source filed them. Cut-off read from the data, not from the text of the source: active = GI50 up to about 1.1 µM and inactive = higher.
Columns and labels:
Assay in all cases: growth of human tumour cells (NCI), 48 h
[1] = test system: OVCAR-8
[2] = test system: U-251
[3] = test system: A549
[4] = test system: UACC-257
[5] = test system: HCT-116
[6] = test system: UACC-62
[7] = test system: A498
[8] = test system: Hs-578T
[9] = test system: HT-29
[10] = test system: K562
[11] = test system: HCT-15
[12] = test system: BT-549
[13] = test system: PC-3
[14] = test system: SF-295
[15] = test system: NCI-H23
[16] = test system: NCI/ADR-RES
[17] = test system: MDA-N
[18] = test system: SK-MEL-5
[19] = test system: KM12
[20] = test system: MDA-MB-231
[21] = test system: MDA-MB-435
[22] = test system: EKVX
[23] = test system: HOP-92
[24] = test system: ACHN
[25] = test system: LOX IMVI
[26] = test system: SK-OV-3
[27] = test system: CAKI-1
[28] = test system: DU-145
[29] = test system: IGROV-1
[30] = test system: SF-268
[31] = test system: SK-MEL-28
[32] = test system: SK-MEL-2
[33] = test system: OVCAR-4
[34] = test system: RXF 393
[35] = test system: M14
[36] = test system: RPMI-8226
[37] = test system: SNB-19
[38] = test system: Malme-3M
[39] = test system: HOP-62
[40] = test system: SW-620
[41] = test system: COLO 205
[42] = test system: NCI-H522
[43] = test system: SNB-75
[44] = test system: SF-539
[45] = test system: TK-10
[46] = test system: MCF7
[47] = test system: OVCAR-3
[48] = test system: 786-0
[49] = test system: NCI-H226
[50] = test system: OVCAR-5
[51] = test system: T47D
[52] = test system: UO-31
[53] = test system: NCI-H460
[54] = test system: MOLT-4
[55] = test system: CCRF-CEM
[56] = test system: SN12C
[57] = test system: HCC 2998

Measured: GI50

CN1CCN(c2ccncc2S(=O)(=O)N2CCN(C)CC2)CC1
inactive: [1] > 100 µM | [2] > 100 µM | [3] > 100 µM | [4] > 100 µM | [5] > 100 µM | [6] > 100 µM | [7] > 100 µM | [8] > 100 µM | [9] > 100 µM | [10] > 100 µM | [12] > 100 µM | [13] > 100 µM | [14] > 100 µM | [15] > 100 µM | [16] > 100 µM | [17] > 100 µM | [18] > 100 µM | [19] > 100 µM | [20] > 100 µM | [21] > 100 µM | [22] > 100 µM | [23] > 100 µM | [24] > 100 µM | [25] > 100 µM | [26] > 100 µM | [27] > 100 µM | [28] > 100 µM | [29] > 100 µM | [30] > 100 µM | [31] > 100 µM | [32] > 100 µM | [33] > 100 µM | [34] > 100 µM | [35] > 100 µM | [36] > 100 µM | [37] > 100 µM | [38] > 100 µM | [39] > 100 µM | [40] > 100 µM | [41] > 100 µM | [42] > 100 µM | [43] > 100 µM | [44] > 100 µM | [45] > 100 µM | [46] > 100 µM | [47] > 100 µM | [48] > 100 µM | [49] > 100 µM | [50] > 100 µM | [51] > 100 µM | [52] > 100 µM | [53] > 100 µM
> 100 µM: [11]

CC(=O)OCCCCn1nncc1Cn1ccc(=O)n(Cc2cnnn2CCCCOC(C)=O)c1=O
inactive: [1] > 100 µM | [2] > 100 µM | [3] > 100 µM | [54] > 100 µM | [4] > 100 µM | [5] > 100 µM | [6] > 10 µM | [7] > 100 µM | [8] > 100 µM | [12] > 100 µM | [13] > 100 µM | [14] > 100 µM | [15] > 100 µM | [16] > 100 µM | [17] > 100 µM | [18] > 100 µM | [19] > 100 µM | [20] > 100 µM | [21] > 100 µM | [22] > 100 µM | [23] > 100 µM | [24] > 100 µM | [25] > 100 µM | [26] > 100 µM | [27] > 100 µM | [28] > 100 µM | [29] > 100 µM | [30] > 100 µM | [31] > 100 µM | [32] > 100 µM | [33] > 100 µM | [34] > 100 µM | [35] > 100 µM | [36] > 100 µM | [37] > 100 µM | [38] > 100 µM | [39] > 100 µM | [40] > 100 µM | [41] > 100 µM | [43] > 100 µM | [44] > 100 µM | [45] > 100 µM | [46] > 100 µM | [47] > 100 µM | [48] > 100 µM | [49] > 100 µM | [50] > 100 µM | [56] > 100 µM | [51] > 100 µM | [52] > 100 µM | [57] > 100 µM
active: [55] 0.385 µM
> 100 µM: [11]

Reference: ChEMBL document CHEMBL1201862, “PubChem BioAssay data set” (2004)
